Peptide text beside a SMILES is read from it.
Key:
[1] = test system: human red blood cells (hRBC); assay: Hemolysis of human red blood cells; type: cell-based; conditions: red cells of human, 1 h
Method in brief: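 PBS-washed human red blood cells (20% v/v) were incubated with peptide at 200 μg/mL for 1 h at 37 °C with shaking. Supernatant OD was read at 540 nm after 8-fold dilution. Hemolysis is expressed as percent of the water control.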

[2] = test system: Klebsiella pneumoniae SSI3010; conditions: SSI3010
Method in brief: (§1)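 Broth microdilution; cation-adjusted MHII; inoculum ~5×10^5 CFU/mL from 0.5 McFarland saline suspension; peptide two-fold serial dilutions; polysorbate 80 0.002% final; peptide stock 1 mg/mL in water.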

[3] = test system: Escherichia coli ATCC 25922; conditions: ATCC 25922
Method in brief: as §1

[4] = test system: Escherichia coli MCR-1 Af 45; conditions: Mueller-Hinton broth II, 18-20 hours at 35° C.
Method in brief: as §1

| SMILES | Hemolysis at 0.2 g/L [1] [%] | Klebsiella pneumoniae SSI3010 MIC [2] [mg/L] | Escherichia coli ATCC 25922 MIC [3] [mg/L] | Escherichia coli MCR-1 Af 45 MIC [4] [mg/L] |
| --- | --- | --- | --- | --- |
| CC[C@H](C)[C@H](NC(=O)[C@@H]1C[C@@H](O)CN1C(=O)[C@@H](N)C(C)C)C(=O)N[C@H](C(=O)N[C@@H](Cc1ccc(O)cc1)C(=O)N[C@@H]1C(=O)N[C@@H](CC(N)=O)C(=O)N[C@@H](CCCNC(=N)N)C(=O)N[C@@H](CCN)C(=O)N[C@@H]([C@@H](C)O)C(=O)N[C@H](CCN)C(=O)N[C@@H](CCCCN)C(=O)N[C@H](C(=O)N[C@@H](CCN)C(=O)N[C@@H](CCN)C(=O)N[C@@H](Cc2ccc(O)cc2)C(=O)O)CSSC1(C)C)[C@@H](C)O [Example 177] (HELM PEPTIDE1{V.[Hyp].I.T.Y.[Pen].N.R.[Dab].T.[NCC[C@@H](N[*:1])C(=O)[*:2]].K.C.[Dab].[Dab].Y}$PEPTIDE1,PEPTIDE1,6:R3-13:R3$$$V2.0) | 0 | 0.25 | 0.125 | 0.125 |
| CC[C@H](C)[C@H](NC(=O)[C@@H]1C[C@@H](O)CN1C(=O)[C@@H](N)C(C)C)C(=O)N[C@H](C(=O)N[C@@H](Cc1ccc(O)cc1)C(=O)N[C@@H]1C(=O)N[C@@H](CC(N)=O)C(=O)N[C@@H](CCCNC(=N)N)C(=O)N[C@@H](CCN)C(=O)N[C@@H]([C@@H](C)O)C(=O)N[C@H](CCN)C(=O)N[C@@H](CCCCN)C(=O)N[C@H](C(=O)N[C@@H](CCN)C(=O)N[C@@H](CCCCN)C(=O)N[C@@H](Cc2ccc(O)cc2)C(=O)O)CSSC1(C)C)[C@@H](C)O [Example 178] (HELM PEPTIDE1{V.[Hyp].I.T.Y.[Pen].N.R.[Dab].T.[NCC[C@@H](N[*:1])C(=O)[*:2]].K.C.[Dab].K.Y}$PEPTIDE1,PEPTIDE1,6:R3-13:R3$$$V2.0) | 0 | 0.5 | 0.25 | 0.125 |
| CC[C@H](C)[C@H](NC(=O)[C@@H]1C[C@@H](O)CN1C(=O)[C@@H](N)C(C)C)C(=O)N[C@H](C(=O)N[C@@H](Cc1ccc(O)cc1)C(=O)N[C@@H]1C(=O)N[C@@H](CC(N)=O)C(=O)N[C@@H](CCCNC(=N)N)C(=O)N[C@@H](CCN)C(=O)N[C@@H]([C@@H](C)O)C(=O)N[C@H](CCN)C(=O)N[C@@H](CCCCN)C(=O)N[C@H](C(=O)N[C@@H](CCN)C(=O)N[C@@H](CCCN)C(=O)N[C@@H](Cc2ccc(O)cc2)C(=O)O)CSSC1(C)C)[C@@H](C)O [Example 179] (HELM PEPTIDE1{V.[Hyp].I.T.Y.[Pen].N.R.[Dab].T.[NCC[C@@H](N[*:1])C(=O)[*:2]].K.C.[Dab].[Orn].Y}$PEPTIDE1,PEPTIDE1,6:R3-13:R3$$$V2.0) | 0 | 0.25 | 0.125 | 0.0625 |
| CC[C@H](C)[C@H](NC(=O)[C@@H]1C[C@@H](O)CN1C(=O)[C@@H](N)C(C)C)C(=O)N[C@H](C(=O)N[C@@H](Cc1ccc(O)cc1)C(=O)N[C@@H]1C(=O)N[C@@H](CC(N)=O)C(=O)N[C@@H](CCCNC(=N)N)C(=O)N[C@@H](CCN)C(=O)N[C@@H]([C@@H](C)O)C(=O)N[C@H](CCN)C(=O)N[C@@H](CCCNC(N)=O)C(=O)N[C@H](C(=O)N[C@@H](CCN)C(=O)N[C@@H](CCCNC(=N)N)C(=O)N[C@@H](Cc2ccc(O)cc2)C(=O)O)CSSC1(C)C)[C@@H](C)O [Example 180] (HELM PEPTIDE1{V.[Hyp].I.T.Y.[Pen].N.R.[Dab].T.[NCC[C@@H](N[*:1])C(=O)[*:2]].[Cit].C.[Dab].R.Y}$PEPTIDE1,PEPTIDE1,6:R3-13:R3$$$V2.0) | 1 | 0.5 | 0.25 | 0.25 |
| CC[C@H](C)[C@H](NC(=O)[C@@H]1C[C@@H](O)CN1C(=O)[C@@H](NC)C(C)C)C(=O)N[C@H](C(=O)N[C@@H](Cc1ccc(O)cc1)C(=O)N[C@@H]1C(=O)N[C@@H](CC(N)=O)C(=O)N[C@@H](CCCNC(=N)N)C(=O)N[C@@H](CCN)C(=O)N[C@@H]([C@@H](C)O)C(=O)N[C@H](CCN)C(=O)N[C@@H](CCCCN)C(=O)N[C@H](C(=O)N[C@@H](CCN)C(=O)N[C@@H](CCCNC(=N)N)C(=O)N[C@@H](Cc2ccc(O)cc2)C(=O)O)CSSC1(C)C)[C@@H](C)O [Example 181] (HELM PEPTIDE1{[meV].[Hyp].I.T.Y.[Pen].N.R.[Dab].T.[NCC[C@@H](N[*:1])C(=O)[*:2]].K.C.[Dab].R.Y}$PEPTIDE1,PEPTIDE1,6:R3-13:R3$$$V2.0) | 0 | 0.25 | 0.125 | 0.125 |
| CC[C@H](C)[C@H](NC(=O)[C@@H]1C[C@@H](O)CN1C(=O)[C@@H](N)C(C)C)C(=O)N[C@H](C(=O)N[C@@H](Cc1ccc(O)cc1)C(=O)N[C@@H]1C(=O)N[C@@H](CN)C(=O)N[C@@H](CCCNC(=N)N)C(=O)N[C@@H](CCN)C(=O)N[C@@H]([C@@H](C)O)C(=O)N[C@H](CCN)C(=O)N[C@@H](CCCCN)C(=O)N[C@H](C(=O)N[C@@H](CCN)C(=O)N[C@@H](CCCNC(=N)N)C(=O)N[C@@H](Cc2ccc(O)cc2)C(=O)O)CSSC1(C)C)[C@@H](C)O [Example 182] (HELM PEPTIDE1{V.[Hyp].I.T.Y.[Pen].[NC[C@H](N[*:1])C(=O)[*:2]].R.[Dab].T.[NCC[C@@H](N[*:1])C(=O)[*:2]].K.C.[Dab].R.Y}$PEPTIDE1,PEPTIDE1,6:R3-13:R3$$$V2.0) | 0 | 0.25 | 0.0625 | 0.125 |
| CC[C@H](C)[C@H](NC(=O)[C@@H]1C[C@@H](O)CN1C(=O)[C@@H](N)C(C)C)C(=O)N[C@@H](CN)C(=O)N[C@@H](Cc1ccc(O)cc1)C(=O)N[C@@H]1C(=O)N[C@@H](CC(N)=O)C(=O)N[C@@H](CCCNC(=N)N)C(=O)N[C@@H](CCN)C(=O)N[C@@H]([C@@H](C)O)C(=O)N[C@H](CCN)C(=O)N[C@@H](CCCCN)C(=O)N[C@H](C(=O)N[C@@H](CCN)C(=O)N[C@@H](CCCNC(=N)N)C(=O)N[C@@H](Cc2ccc(O)cc2)C(=O)O)CSSC1(C)C [Example 183] (HELM PEPTIDE1{V.[Hyp].I.[NC[C@H](N[*:1])C(=O)[*:2]].Y.[Pen].N.R.[Dab].T.[NCC[C@@H](N[*:1])C(=O)[*:2]].K.C.[Dab].R.Y}$PEPTIDE1,PEPTIDE1,6:R3-13:R3$$$V2.0) | 0 | 0.5 | 0.25 | 0.125 |
| CC[C@H](C)[C@H](NC(=O)[C@@H]1C[C@@H](O)CN1C(=O)[C@@H](N)C(C)C)C(=O)N[C@@H](CCCNC(=N)N)C(=O)N[C@@H](Cc1ccc(O)cc1)C(=O)N[C@@H]1C(=O)N[C@@H](CC(N)=O)C(=O)N[C@@H](CCCNC(=N)N)C(=O)N[C@@H](CCN)C(=O)N[C@@H]([C@@H](C)O)C(=O)N[C@H](CCN)C(=O)N[C@@H](CCCCN)C(=O)N[C@H](C(=O)N[C@@H](CCN)C(=O)N[C@@H](CCCNC(=N)N)C(=O)N[C@@H](Cc2ccc(O)cc2)C(=O)O)CSSC1(C)C [Example 184] (HELM PEPTIDE1{V.[Hyp].I.R.Y.[Pen].N.R.[Dab].T.[NCC[C@@H](N[*:1])C(=O)[*:2]].K.C.[Dab].R.Y}$PEPTIDE1,PEPTIDE1,6:R3-13:R3$$$V2.0) | 0 | 0.25 | 0.25 | 0.0625 |
| CC[C@H](C)[C@H](NC(=O)[C@@H]1C[C@@H](N)CN1C(=O)[C@@H](N)C(C)C)C(=O)N[C@H](C(=O)N[C@@H](Cc1ccc(O)cc1)C(=O)N[C@@H]1C(=O)N[C@@H](CC(N)=O)C(=O)N[C@@H](CCCNC(=N)N)C(=O)N[C@@H](CCN)C(=O)N[C@@H]([C@@H](C)O)C(=O)N[C@H](CCN)C(=O)N[C@@H](CCCCN)C(=O)N[C@H](C(=O)N[C@@H](Cc2ccc(O)cc2)C(=O)N[C@@H](CCCNC(=N)N)C(=O)N[C@@H](Cc2ccc(O)cc2)C(=O)O)CSSC1(C)C)[C@@H](C)O [Example 185] (HELM PEPTIDE1{V.[N[C@@H]1C[C@@H](C(=O)[*:2])N([*:1])C1].I.T.Y.[Pen].N.R.[Dab].T.[NCC[C@@H](N[*:1])C(=O)[*:2]].K.C.Y.R.Y}$PEPTIDE1,PEPTIDE1,6:R3-13:R3$$$V2.0) | 0 | 0.5 | 0.25 | 0.125 |
| CC[C@H](C)[C@H](NC(=O)[C@@H](NC(=O)[C@@H]1CCCN1C(=O)[C@@H](NC(=N)N)C(C)C)[C@@H](C)CC)C(=O)N[C@@H](Cc1ccc(O)cc1)C(=O)N[C@H]1CSSC[C@@H](C(=O)N[C@@H](CCN)C(=O)N[C@@H](CCCNC(=N)N)C(=O)N[C@@H](Cc2ccc(O)cc2)C(=O)O)NC(=O)[C@H](CCCCN)NC(=O)[C@@H](CCN)NC(=O)[C@H]([C@@H](C)O)NC(=O)[C@H](CCN)NC(=O)[C@H](CCCNC(=N)N)NC(=O)[C@H](CC(N)=O)NC1=O [Example 186] (HELM PEPTIDE1{[CC(C)[C@H](NC(=N)N)C(=O)[*:2]].P.I.I.Y.C.N.R.[Dab].T.[NCC[C@@H](N[*:1])C(=O)[*:2]].K.C.[Dab].R.Y}$PEPTIDE1,PEPTIDE1,6:R3-13:R3$$$V2.0) | 0 | ≤0.25 | 0.125 | 0.125 |
